Results on two molecules are retold here after patent publication US20260263376A1, “THERAPEUTIC DELIVERY VECTORS COMPRISING AMPHIPHILIC BLOCK COPOLYMERS” (Swansea University, priority 2023, published 2026).

For one assay, the system named is SKOV-3 WT. Kind of assay: Endocytosis elucidation with chemical inhibitors prior to NP(DiD) treatment, flow cytometry. The class given is cell-based. The settings on record: inhibitor before NP treatment. As for the experimental part: (§1) FIG. 19 NP(DiD) uptake following 24 h exposure in OVCAR-3 (a) and SKOV-3 (b). Uptake quantification measured using corrected total cell fluorescence method and plotted for 24 (c), 48 (d) and 72 h (e) NP(DiD) treatments. Endocytosis elucidation conducted using chemical inhibitors, prior to NP(DiD) treatments and cells analyzed using flow cytometry. Example of cell population positive for NP8 in SKOV-3 WT (f) and endocytosis pathway distribution graphs for OVCAR-3 WT (g) and SKOV-3 (h).
Internalization and quantification of nanoparticles was characterized using fluorescently labelled nanoparticles, Vybrant DiD™ loaded particles were fabricated (co-dissolution as previously described) followed by spin filtration to remove non-encapsulated dye. 2D Cell cultures were treated with NP(DiD) for 24, 48 and 72 h. […] Corrected total cell fluorescence (CTCF) was calculated.[36] Microtissue penetration was conducted using the same fluorescently labelled NPs. Spheroids (2×10^3 cells) were seeded 48 h prior to use, 10 spheroids per NP were treated for 24 h with 20 μL stock NP(DiD).[37] […] Data was visualized using MATLAB code form CellStream exports to create violin plots of total populations. […] Nanoparticle, cell counter staining and imaging all conducted as described above. Uptake thresholding into binary high and low uptake conditions was conducted using quantification histograms and manual identification of population peaks.

For the next assay, the system named is OVCAR-3 WT. The description is as above. The class given is cell-based. The note with it: inhibitor before NP treatment. As for the experimental part: as §1
Internalization and quantification of nanoparticles was characterized using fluorescently labelled nanoparticles, Vybrant DiD™ loaded particles were fabricated (co-dissolution as previously described) followed by spin filtration to remove non-encapsulated dye. 2D Cell cultures were treated with NP(DiD) for 24, 48 and 72 h. 426 Cells were co-stained for nuclei using 16.2 μM Hoescht. Cells were imaged using CLSM or quantified following detachment using CellStream (A2 for DAPI channel, 428 B6 for DiD channel). Corrected total cell fluorescence (CTCF) was calculated.[36] Microtissue penetration was conducted using the same fluorescently labelled NPs. […] Uptake thresholding into binary high and low uptake conditions was conducted using quantification histograms and manual identification of population peaks.

For the molecule `CCN(CC)CCCC(C)Nc1ccnc2cc(Cl)ccc12` (stereo not shown) [chloroquine], in the assay on SKOV-3 WT, the “increase in cell population positive for NPs” value is 3% and the “increase in mean florescence” value is recorded as 3×10^5.

Turning to NAV 2729, the drop in fluorescence in the assay on SKOV-3 WT and in the assay on OVCAR-3 WT was 90% each time.
